Where “and” joins values, the source holds several entries; their conditions need not be identical. Equal values may be shown once. Read-outs that look alike come from different tables or passages of the source.
Legend:
HaCaT cells = assay: Cytotoxicity (MTS assay); conditions: 48 h
Procedure: (§1) Keratinocytes are the primary cell type found in the outermost layer of the skin. Therefore, HaCaT cells were used as a model for human skin, and RPE1 are retinal pigment epithelial cells, thus a model for epithelial cell type.
(§2) Cells were grown in DMEM media in a humidified environment with 5% CO2 and 37 °C. To determine cytotoxicity, a twofold serial dilution of a tested compound starting at 5 mg/mL was prepared in a 96-well plate. Five thousand cells were pipetted into each well, and the cells were grown for an additional 48 h. Then, the reagent MTS (20 μL) was added to the cells according to the manufacturer’s instructions (CellTiter 96® Aqueous One Solution Cell Proliferation Assay, Promega). After 3 h of incubation, the absorbance was measured at 490 nm. IC50 values were determined by plotting compound concentration against absorbance using GraFit6 software.

RPE1 cells = assay: Cytotoxicity (MTS assay); conditions: 48 h
Procedure: as §1, §2

[1] = system: methicillin-resistant Staphylococcus aureus clinical strain MRSA; assay: Broth microdilution assay (MIC); format: cell-based
Procedure: (§3) The antibacterial activity of all compounds was evaluated by determining the minimum inhibitory concentration (MIC), which is defined as the lowest concentration of the compound at which no visible bacterial growth is detected. The compounds were tested against representatives of Gram-positive and Gram-negative strains, including the ESKAPE bacterium Staphylococcus aureus ATCC25923 and the clinical isolate of methicillin-resistant S. aureus (MRSA), which are known for their pathogenicity.
(§4) The collection included five Gram-positive strains, including Staphylococcus aureus (ATCC 25923 and a methicillin-resistant Staphylococcus aureus clinical strain MRSA), Bacillus cereus ATCC 14579, Enterococcus faecalis ATCC 29212, and Listeria monocytogenes ATCC 7644; and three Gram-negative strains: Escherichia coli ATCC 25922, Pseudomonas aeruginosa ATCC 27853 and the food isolate Salmonella enterica. All microbial strains were maintained at ™80 °C for long-term storage and subcultured on Mueller-Hinton (MH) agar (Biolife, Italy) prior to broth microdilution experiments. The MH plates were stored at +4 °C for no longer than one month.
(§5) Antibacterial activity was evaluated using the Broth Microdilution Assay according to the Clinical and Laboratory Standard Institute’s Methods for Dilution Antimicrobial Susceptibility Test for Bacteria That Grow Aerobically; Approved Standard-Tenth Edition.
(§6) The stock solution of QAS (10 mg/mL) was prepared in 4% DMSO. Then, 100 µL of the tested QAS was added to the first well of the microtiter plate. Twofold serial dilutions in Muller-Hinton broth were performed over the entire plate at a concentration range of 5 mg/mL to 5 µg/mL. To each well, 50 µL of mid-exponentially grown inoculum containing 10^5 CFU/mL in Mueller-Hinton broth was added and incubated at 37 °C for 18 hours. The minimum inhibitory concentration (MIC) was determined as the lowest concentration at which no visually detectable bacterial growth occurred in the wells.

[2] = system: Salmonella enterica food isolate; assay: Broth microdilution assay (MIC); format: cell-based; conditions: 18 h, S. enterica food isolate
Procedure: as §3, §4, §5, §6

[3] = system: Escherichia coli ATCC25922; assay: Broth microdilution assay (MIC); format: cell-based; conditions: ATCC25922, 18 h
Procedure: as §3
(§7) All microbial strains were maintained at ™80 °C for long-term storage and subcultured on Mueller-Hinton (MH) agar (Biolife, Italy) prior to broth microdilution experiments. The MH plates were stored at +4 °C for no longer than one month.
as §5
as §6, with “To each well, 50 µL of mid-exponentially grown inoculum containing 10^5 CFU/mL in Mueller-Hinton broth was added and incubated at 37 °C for 18 hours.” left out

[4] = system: Bacillus cereus ATCC14579; assay: Broth microdilution assay (MIC); format: cell-based
Procedure: as §3, §7, §5
as §6, with “To each well, 50 µL of mid-exponentially grown inoculum containing 10^5 CFU/mL in Mueller-Hinton broth was added and incubated at 37 °C for 18 hours.” left out

[5] = system: Enterococcus faecalis ATCC29212; assay: Broth microdilution assay (MIC); format: cell-based
Procedure: as §3, §7, §5
as §6, with “To each well, 50 µL of mid-exponentially grown inoculum containing 10^5 CFU/mL in Mueller-Hinton broth was added and incubated at 37 °C for 18 hours.” left out

[6] = system: Listeria monocytogenes ATCC7644; assay: Broth microdilution assay (MIC); format: cell-based
Procedure: as §3, §7, §5
as §6, with “To each well, 50 µL of mid-exponentially grown inoculum containing 10^5 CFU/mL in Mueller-Hinton broth was added and incubated at 37 °C for 18 hours.” left out

[7] = system: Pseudomonas aeruginosa ATCC27853; assay: Broth microdilution assay (MIC); format: cell-based
Procedure: as §3, §7, §5
as §6, with “To each well, 50 µL of mid-exponentially grown inoculum containing 10^5 CFU/mL in Mueller-Hinton broth was added and incubated at 37 °C for 18 hours.” left out

[8] = system: Staphylococcus aureus ATCC25923; assay: Broth microdilution assay (MIC); format: cell-based; conditions: for MIC: Staphylococcus aureus
Procedure: as §3, §7, §5
as §6, with “To each well, 50 µL of mid-exponentially grown inoculum containing 10^5 CFU/mL in Mueller-Hinton broth was added and incubated at 37 °C for 18 hours.” left out

[9] = system: Tobacco mosaic virus (TMV); assay: Antiphytoviral activity assay (local lesions on host plant leaves); format: in vivo, Tobacco mosaic virus on Datura stramonium; conditions: Datura stramonium leaves
Procedure: Leaves of Nicotiana tabacum L. cv. Samsun plants systemically infected with Tobacco mosaic virus (TMV) were ground in 0.06 mol/L phosphate buffer, pH 7.0 (1:1, w/v) to prepare virus inocula. […] Leaves of the local host Datura stramonium L. were dusted with silicon carbide (Sigma-Aldrich, St. Louis, MO, USA) before virus inoculation, and the inoculum was diluted with inoculation buffer to obtain 5–20 lesions per inoculated leaf. Experiments were performed when the experimental plants reached the 4–6 leaf stage.
The tested QAS (10 mg/mL) were dissolved in 4% DMSO and added to the virus inocula at a final concentration of 100 µg/mL. DMSO was added to the control virus inocula at the same concentration. The control and treated plants were then rubbed with the prepared inocula and the antiviral activity of the tested compounds was evaluated by the percentage inhibition of the number of local lesions on the leaves of the treated and control plants as described in [40]. The obtained data were analyzed in Excel (Microsoft Office) and significant differences were determined by t-test.

[10] = system: Escherichia coli DH5α cells; assay: AFM, bright-field and SYTO9/PI fluorescence microscopy of treated cells; format: cell-based; conditions: E. coli DH5α
Procedure: Optical and atomic force microscopy of the immobilized untreated and treated cells was performed to visualize the effect of Py-C12 on the bacterial membrane. For these experiments we used Escherichia coli DH5α cells because these cells allowed solid immobilization with persevered cell viability.
After making sure that the cells were properly immobilized and proliferating (a few new generations of cells were observed via optical microscopy), we started the treatment. To accelerate the process of time-dependent membrane damage, the cells were treated with the 4xMIC of Py-C12 for three hours after which the sample was rinsed with the fresh growth medium.
To estimate the percentage of cells whose membrane had been permeabilized by the treatment, the same group of cells was stained simultaneously with two fluorescent nucleic dyes, SYTO9 and propidium iodide (PI). […] When applied together, PI tends to displace SYTO9 from nucleic acid and the cells fluorescence in red. […]
AFM measurements of immobilized cells, both untreated and treated, were performed using the Nano-wizard IV system (JPK/Bruker, Berlin, Germany) operating in quantitative imaging (QI) mode with SNL-B probes (Bruker, Billerica, MA, USA). The AFM system was integrated with an IX73 inverted fluorescence optical microscope (Olympus, Tokyo, Japan). […]

Escherichia coli DH5α = assay: MIC determination before AFM; format: cell-based
[11] = compound 100 µg/mL inoculated simultaneously with TMV

Compound | Cytotoxicity in words (HaCaT cells) | Cytotoxicity in words (RPE1 cells) | MIC [2] | Number of local lesions (LLN ± SD) [9, 11] | MIC ([1]; MRSA, 18 h) | MIC [3] | MIC ([4]; ATCC14579, 18 h) | MIC ([5]; ATCC29212, 18 h) | MIC ([6]; ATCC7644, 18 h) | MIC ([7]; ATCC27853, 18 h) | MIC ([8]; ATCC25923, 18 h) | also measured
ON=Cc1ccncc1 [Py-4-ox, pyridine-4-aldoxime, reference compound] | moderately toxic | moderately toxic | 5000 µg/mL and 40900 µM |  |  |  |  |  |  |  |  | MIC ([1]; 18 h, S. aureus clinical/MRSA, read-out: MIC): > 5000 mg/L; MIC ([3]; E. coli ATCC25922, read-out: MIC): > 5000 µg/mL and > 40900 µM; MIC ([4]; 18 h, B. cereus ATCC14579, read-out: MIC): > 5000 mg/L; MIC ([5]; 18 h, E. faecalis ATCC29212, read-out: MIC): 5000 µg/mL and 40900 µM; MIC ([6]; 18 h, L. monocytogenes ATCC7644, read-out: MIC): > 5000 µg/mL and > 40900 µM; MIC ([7]; 18 h, P. aeruginosa ATCC27853, read-out: MIC): > 5000 µg/mL and > 40900 µM; MIC ([8]; S. aureus ATCC25923, 18 h, 37 °C, read-out: MIC): > 5000 mg/L
CCCCCCCCCCCC[n+]1ccc(C=NO)cc1 [Py-C12] |  |  | 630 µg/mL and 1700 µM | 3.0±1.1 | 310 mg/L | 630 µg/mL and 1700 µM | 1250 mg/L | 630 µg/mL and 1700 µM | 630 µg/mL and 1700 µM | 2500 µg/mL and 6730 µM | 80 mg/L | Percentage of inhibition of local lesions ([9]; compound 100 µg/mL inoculated simultaneously with TMV, vs control plants): 78.1%; effect on number of bacterial cells (bright-field) ([10]; 4xMIC, 3 h): bacteriostatic effect; percentage of permeabilized cells ([10]; 4 × MIC, 3 h treatment, SYTO9/PI staining, 344 cells): 87%; MIC against E. coli DH5α in words (Escherichia coli DH5α): equivalent to that of E. coli ATTC 25922
CCCCCCCCCCCCCC[n+]1ccc(C=NO)cc1 [Py-C14] | moderately toxic | moderately toxic | 2500 µg/mL and 6260 µM | 1.0±0.4 | 160 mg/L | 630 µg/mL and 1580 µM | 1250 mg/L | 310 µg/mL and 780 µM | 310 µg/mL and 780 µM | 2500 µg/mL and 6260 µM | 80 mg/L | fold higher LLN than the control BAB ([9]; 100 µg/mL): 5 fold
CCCCCCCCCCCCCCCC[n+]1ccc(C=NO)cc1 [Py-C16] | moderately toxic | moderately toxic | 5000 µg/mL and 11700 µM |  | 160 mg/L | 160 µg/mL and 370 µM | 160 mg/L | 2500 µg/mL and 5850 µM | 1250 µg/mL and 2920 µM | 2500 µg/mL and 5850 µM | 40 mg/L | MIC ([1]; MRSA): 160 mg/L; fold higher MIC than CPC ([8]; S. aureus ATCC25923): 28 fold; fold higher MIC than cefotaxime ([8]; S. aureus ATCC25923): 10 fold

Source: PMC9315884, “New Membrane Active Antibacterial and Antiviral Amphiphiles Derived from Heterocyclic Backbone of Pyridinium-4-Aldoxime” (Pharmaceuticals, 2022)
